Key:
[1] = biological target: T1, Phenylethanolamine N-methyltransferase (Bos taurus, UniProt P10938); assay: In vitro inhibitory activity measured against bovine adrenal phenylethanolamine N-methyltransferase(PNMT)
T1 sequence (P10938 whole entry): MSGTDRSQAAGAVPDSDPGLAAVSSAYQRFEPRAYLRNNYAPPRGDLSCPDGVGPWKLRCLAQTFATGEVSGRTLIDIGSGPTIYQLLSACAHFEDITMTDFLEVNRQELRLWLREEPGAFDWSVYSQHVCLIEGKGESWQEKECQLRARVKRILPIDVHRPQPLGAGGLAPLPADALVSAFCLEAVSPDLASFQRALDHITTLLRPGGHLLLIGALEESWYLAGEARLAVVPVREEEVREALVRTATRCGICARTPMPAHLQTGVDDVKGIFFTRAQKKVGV

[2] = biological target: T1, Phenylethanolamine N-methyltransferase; assay: In vitro inhibitory activity measured against bovine adrenal phenylethanolamine N-methyltransferase(PNMT); Ki values determined at incubation times of 5, 10, 15, 20 and 30 min

Ki [1]	Ki [2]	SMILES
–	69.5 µM	COC(=O)C1Cc2ccccc2CN1 (configuration not stated)
40.5 µM	–	NC(=O)C1Cc2ccccc2CN1 (configuration not stated)
> 2000 µM	–	O=C(O)C1Cc2ccccc2CN1 (configuration not stated)

More lines, now with the values behind:

SMILES	Ki [1]	Ki [2]
OCC1Cc2ccccc2CN1 (configuration not stated)	2.4 µM	–
OCC1Cc2ccc(Cl)c(Cl)c2CN1 (configuration not stated)	0.38 µM	–
CCC1Cc2ccccc2CN1 (configuration not stated)	23.9 µM	–
Clc1ccc2c(c1Cl)CNCC2	0.24 µM	–

From ChEMBL document CHEMBL1124088, “Synthesis and evaluation of 3-substituted analogues of 1,2,3,4-tetrahydroisoquinoline as inhibitors of phenylethanolamine N-methyltransferase” (J Med Chem, 1988)
